Source: PubChem BioAssay AID2060507 (Molecular Pharmacology Branch, DTP, NCI, 2025)

Test system: 519858-162-T-J1-PDC complex spheroid viability
Assay: Anticancer human tumor 519858-162-T-J1-PDC patient-derived colon adenocarcinoma cell line growth inhibition [GQUAD]
Settings: for IC50: curve of first compound; for viability, T/C: stronger effect = lower value
Procedure, shortened: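 Viability of tumor cells grown as complex spheroids with endothelial and stromal cells, exposed to drug combinations. Top concentration at or near clinical Cmax (else 10 microM), diluted in half-log increments.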

[1] = second compound 0.0316 µM, first compound 0.0316 µM
[2] = second compound 0.0316 µM, first compound 0.1 µM
[3] = second compound 0.0316 µM, first compound 0.316 µM
[4] = second compound 0.0316 µM, first compound 1 µM
[5] = second compound 0.0316 µM, first compound 3.16 µM
[6] = second compound 0.0316 µM, first compound 10 µM
[7] = second compound 0.1 µM, first compound 0.0316 µM
[8] = second compound 0.1 µM, first compound 0.1 µM
[9] = second compound 0.1 µM, first compound 0.316 µM
[10] = second compound 0.1 µM, first compound 1 µM
[11] = second compound 0.1 µM, first compound 3.16 µM
[12] = second compound 0.1 µM, first compound 10 µM
[13] = second compound 0.316 µM, first compound 0.0316 µM
[14] = second compound 0.316 µM, first compound 0.1 µM
[15] = second compound 0.316 µM, first compound 0.316 µM
[16] = second compound 0.316 µM, first compound 1 µM
[17] = second compound 0.316 µM, first compound 3.16 µM
[18] = second compound 0.316 µM, first compound 10 µM
[19] = second compound 1 µM, first compound 0.0316 µM
[20] = second compound 1 µM, first compound 0.1 µM
[21] = second compound 1 µM, first compound 0.316 µM
[22] = second compound 1 µM, first compound 1 µM
[23] = second compound 1 µM, first compound 3.16 µM
[24] = second compound 1 µM, first compound 10 µM
[25] = second compound 3.16 µM, first compound 0.0316 µM
[26] = second compound 3.16 µM, first compound 0.1 µM
[27] = second compound 3.16 µM, first compound 0.316 µM
[28] = second compound 3.16 µM, first compound 1 µM
[29] = second compound 3.16 µM, first compound 3.16 µM
[30] = second compound 3.16 µM, first compound 10 µM
[31] = second compound 10 µM, first compound 0.0316 µM
[32] = second compound 10 µM, first compound 0.1 µM
[33] = second compound 10 µM, first compound 0.316 µM
[34] = second compound 10 µM, first compound 1 µM
[35] = second compound 10 µM, first compound 3.16 µM
[36] = second compound 10 µM, first compound 10 µM
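Throughout, for viability, T/C: 100% = DMSO vehicle control viability.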

CC1COCCN1c1cc(C2(S(C)(=N)=O)CC2)nc(-c2ccnc3[nH]ccc23)n1 (stereo unspecified) + Cc1cnc(CNC(=O)c2c(=O)c3ccc(N4CCCN(C)CC4)nc3n3c2sc2ccccc23)cn1
IC50 (second compound 0.0316 µM): 10000 nM | IC50 (second compound 0.1 µM): > 10000 nM | IC50 (second compound 0.316 µM): > 10000 nM | IC50 (second compound 1 µM): > 10000 nM | IC50 (second compound 3.16 µM): < 31.6 nM | IC50 (second compound 10 µM): < 31.6 nM | viability, T/C [1]: 90.9% | viability, T/C [2]: 84.6% | viability, T/C [3]: 89% | viability, T/C [4]: 98.5% | viability, T/C [5]: 48% | viability, T/C [6]: 67.8% | viability, T/C [7]: 114% | viability, T/C [8]: 91.3% | viability, T/C [9]: 84.3% | viability, T/C [10]: 59.8% | viability, T/C [11]: 55.2% | viability, T/C [12]: 78.5% | viability, T/C [13]: 79.3% | viability, T/C [14]: 92.8% | viability, T/C [15]: 67.8% | viability, T/C [16]: 82.6% | viability, T/C [17]: 79.3% | viability, T/C [18]: 66.6% | viability, T/C [19]: 48.6% | viability, T/C [20]: 57.5% | viability, T/C [21]: 74.4% | viability, T/C [22]: 44.8% | viability, T/C [23]: 48.2% | viability, T/C [24]: 57.7% | viability, T/C [25]: 35.9% | viability, T/C [26]: 39% | viability, T/C [27]: 45.5% | viability, T/C [28]: 56.4% | viability, T/C [29]: 51.4% | viability, T/C [30]: 51.1% | viability, T/C [31]: 46% | viability, T/C [32]: 35.6% | viability, T/C [33]: 62.2% | viability, T/C [34]: 41% | viability, T/C [35]: 58.8% | viability, T/C [36]: 37.4%

Cn1ncnc1[C@H]1c2n[nH]c(=O)c3cc(F)cc(c23)N[C@@H]1c1ccc(F)cc1 + Cc1cnc(CNC(=O)c2c(=O)c3ccc(N4CCCN(C)CC4)nc3n3c2sc2ccccc23)cn1
IC50 (second compound 0.0316 µM): > 316 nM | IC50 (second compound 0.1 µM): > 316 nM | IC50 (second compound 0.316 µM): > 316 nM | IC50 (second compound 1 µM): > 316 nM | IC50 (second compound 3.16 µM): < 0.999 nM | IC50 (second compound 10 µM): < 0.999 nM | viability, T/C (second compound 0.0316 µM, first compound 0.000999 µM): 96.5% | viability, T/C (second compound 0.0316 µM, first compound 0.00316 µM): 116% | viability, T/C (second compound 0.0316 µM, first compound 0.00999 µM): 101% | viability, T/C [1]: 72.1% | viability, T/C (second compound 0.0316 µM, first compound 0.0999 µM): 70.2% | viability, T/C [3]: 57.8% | viability, T/C (second compound 0.1 µM, first compound 0.000999 µM): 60.1% | viability, T/C (second compound 0.1 µM, first compound 0.00316 µM): 92.9% | viability, T/C (second compound 0.1 µM, first compound 0.00999 µM): 79.5% | viability, T/C [7]: 79.5% | viability, T/C (second compound 0.1 µM, first compound 0.0999 µM): 56.8% | viability, T/C [9]: 65.2% | viability, T/C (second compound 0.316 µM, first compound 0.000999 µM): 85.3% | viability, T/C (second compound 0.316 µM, first compound 0.00316 µM): 81.8% | viability, T/C (second compound 0.316 µM, first compound 0.00999 µM): 65.9% | viability, T/C [13]: 72% | viability, T/C (second compound 0.316 µM, first compound 0.0999 µM): 61.5% | viability, T/C [15]: 58.9% | viability, T/C (second compound 1 µM, first compound 0.000999 µM): 85.2% | viability, T/C (second compound 1 µM, first compound 0.00316 µM): 72.3% | viability, T/C (second compound 1 µM, first compound 0.00999 µM): 60.9% | viability, T/C [19]: 73.3% | viability, T/C (second compound 1 µM, first compound 0.0999 µM): 69.9% | viability, T/C [21]: 72.7% | viability, T/C (second compound 3.16 µM, first compound 0.000999 µM): 47.3% | viability, T/C (second compound 3.16 µM, first compound 0.00316 µM): 48.7% | viability, T/C (second compound 3.16 µM, first compound 0.00999 µM): 50.3% | viability, T/C [25]: 38.7% | viability, T/C (second compound 3.16 µM, first compound 0.0999 µM): 43.1% | viability, T/C [27]: 52.3% | viability, T/C (second compound 10 µM, first compound 0.000999 µM): 26.9% | viability, T/C (second compound 10 µM, first compound 0.00316 µM): 54% | viability, T/C (second compound 10 µM, first compound 0.00999 µM): 44.4% | viability, T/C [31]: 50.4% | viability, T/C (second compound 10 µM, first compound 0.0999 µM): 49.1% | viability, T/C [33]: 72%

O=C(c1cc(Cc2n[nH]c(=O)c3ccccc23)ccc1F)N1CCN(C(=O)C2CC2)CC1 + Cc1cnc(CNC(=O)c2c(=O)c3ccc(N4CCCN(C)CC4)nc3n3c2sc2ccccc23)cn1
IC50 (second compound 0.0316 µM): > 10000 nM | IC50 (second compound 0.1 µM): > 10000 nM | IC50 (second compound 0.316 µM): > 10000 nM | IC50 (second compound 1 µM): > 10000 nM | IC50 (second compound 3.16 µM): < 31.6 nM | IC50 (second compound 10 µM): < 31.6 nM | viability, T/C [1]: 92.2% | viability, T/C [2]: 89.5% | viability, T/C [3]: 89.7% | viability, T/C [4]: 81.5% | viability, T/C [5]: 64.2% | viability, T/C [6]: 74.7% | viability, T/C [7]: 52.6% | viability, T/C [8]: 65.7% | viability, T/C [9]: 65.3% | viability, T/C [10]: 58.8% | viability, T/C [11]: 48.3% | viability, T/C [12]: 74.5% | viability, T/C [13]: 82.6% | viability, T/C [14]: 72.4% | viability, T/C [15]: 50.3% | viability, T/C [16]: 47.6% | viability, T/C [17]: 52.9% | viability, T/C [18]: 60.6% | viability, T/C [19]: 68.6% | viability, T/C [20]: 67.5% | viability, T/C [21]: 48.3% | viability, T/C [22]: 64.4% | viability, T/C [23]: 45.5% | viability, T/C [24]: 54.6% | viability, T/C [25]: 60% | viability, T/C [26]: 31.8% | viability, T/C [27]: 39.6% | viability, T/C [28]: 39.2% | viability, T/C [29]: 47.4% | viability, T/C [30]: 41.2% | viability, T/C [31]: 47.9% | viability, T/C [32]: 46.5% | viability, T/C [33]: 49.7% | viability, T/C [34]: 44.6% | viability, T/C [35]: 49% | viability, T/C [36]: 57.2%
